The text below walks through data of US20120014917A1, “METHODS OF TREATING HIV PATIENTS WITH ANTI-FIBROTICS” (University of Minnesota, priority 2009, published 2012).

“Also recorded” adds a separate entry of the source.

For data set [1], the system named is collagen expression; matrix metalloproteinases (MMPs) and TIMPs. The conditions noted are these: reported; cited from earlier work.
Data set [2] relates to TNF-α, TGF-β1, bFGF, PDGF, and EGF. The following applies: reported in Zhang et al. 1998; Cain et al. 1998; cited from earlier work.
For a further data set, the system named is SIV infection. The experiment in a line: 24-week study of pirfenidone plus ARV versus ARV only in SIV infection (FIG. 6 protocol, Example 4). Type of data set: in vivo. The method, then:
FIG. 6 depicts a study protocol wherein pirfenidone is administered from Week −2 (relative to SIV infection) through the end of the study and co-administration of antiretroviral therapy is initiated at Week 8 and continued through the end of the study.
This example describes a 24-week study according to the protocol depicted in FIG. 6. In short, there were two groups in the study. The first group (group C as depicted in FIG. 6) received only ARV beginning at Week 8 (relative to SIV infection) of the study and continuing through week 24. The second group (group D as depicted in FIG. 6) received pirfenidone beginning at week −2 of the study and ARV beginning at Week 8. Both pirfenidone and ARV were then co-administered through Week 24 of the study. Tissues were biopsied at Week −2. Additional biopsies were conducted at Weeks 12, 16 and 24 (after sacrifice of the animal).

Another data set relates to SIV MAC239. The data set can be described thus: Pirfenidone in SIV-infected non-human primate model (FIG. 1 protocol, Example 2). Type of data set: in vivo. An excerpt:
Venous blood will be used to measure CD4^+ cell count by flow cytometry. Tissue biopsies (LN and ileal GALT samples) are divided; one portion will be processed by immunohistochemical staining for quantitative image analysis to determine the absolute size of the total CD4^+ cell population, and the remaining portion will be processed by flow cytometry to proportionately quantify CD4^+ cells (total, naïve, central memory [CM], and effector memory [EM] T cells). These methods have been published elsewhere [Schacker et al., 2006, Clinical and Vaccine Immunology 13:556-60; Schacker et al., 2005, AIDS 19:2169-71; Schacker et al., 2002, J Clin Invest 110:1133-9; Schacker J Infect Dis 186:1092-7]. For flow cytometry, a portion of LN tissue and GALT will be placed on ice and CD4^+ cells are isolated within 24 hours by gently separating the cells from surrounding tissue by using a mesh screen. One million cells are washed once in FACS wash (PBS supplemented with 0.1% sodium azide and 2% bovine serum albumin; Sigma). After aspiration of the supernatant, cells will be stained with peridin clorophylla protein-conjugated CD4, allophycocyanin conjugated CD8, phycoerythrin conjugated CD27, and fluorescein isothiocyanate-conjugated CD45RO (all BD Pharmingen), and incubated for 30 min at 4° C., followed by another wash. Cells will be fixed with 1% paraformaldahyde (Electron Microscopy Sciences) and analyzed on a FACS Calibur flow cytometer (BD Pharmingen). Lymphocytes will be gated on the basis of characteristic forward and side scatter properties, followed by separation into CD4^+ T cells and CD8^+ T cells on the basis of expression of CD4 and CD8. Naive T cells are classified by expression of CD27 without expression of CD45RO, as described elsewhere [Brenchley et al., 2003, Blood 101:2711-20]. CM T cells will be classified by coexpression of CD27 and CD45RO, and EM T cells are classified by lack of CD27 expression.
To quantify the total CD4^+ T cell population in each compartment, 4-μm sections will be prepared from the fixed tissues and stained with antibody for CD4 by using either clone 1F6 (Ventana Medical Systems) or clone 4B12 (Neomarkers; Lab Vision). Images will be captured to quantify the percentage of tissue area occupied by CD4 by using PHOTOSHOP CS2, version 9.0 imaging software (ADOBE SYSTEMS, Inc.) with plug-ins from REINDEER GRAPHICS. Inc.
To quantify collagen in the TZ, methods similar to those previously published can be used [Schacker et al., 2002, J. Clin. Investig. 110:1133-1139]. Sections (4 μm) are stained using a modified trichrome stain to identify collagen fibers, and approximately 18 images from the TZ are captured and transported into PHOTOSHOP CS imaging software (ADOBE SYSTEMS, Inc.). Image analysis tools from REINDEER GRAPHICS, Inc. (Asheville, N.C.) may provide better sensitivity for isolating collagen fibers to quantify the percent area occupied by collagen.
In this study, six animals were divided into two groups of three animals each. One group received pirfenidone for 2 weeks and then was infected with SIV MAC239. […] Pirfenidone was continued for 12 weeks following infection and then discontinued for 12 weeks (i.e., week 24) and then restarted. Thus, the pirfenidone-treated group would receive pirfenidone from week −2 to week 12 (14 weeks) and from week 24 to week 36 (12 weeks) for a […]. […] The dose of pirfenidone used was 200 mg/kg orally, twice daily (BID) for a total daily dose of 400 mg/kg/day. This corresponds to a human dose of approximately 6.5 mg/kg BID.
A diagram of the protocol can be seen in FIG. 1. Lymph node and rectal biopsy samples were collected at day 0 and again at weeks 4, 12, 24, and 36 after infection. […]

As to `Cc1ccc(=O)n(-c2ccccc2)c1` [pirfenidone], in data set [1], the “balance of matrix metalloproteinases (MMPs) and their endogenous inhibitors (TIMPs)” value is listed as “alter”; the collagen expression entry is recorded as “decrease”. In addition, the “excessive biosynthesis or release of various cytokines such as TNF-α, TGF-β1, bFGF, PDGF, and EGF” value in data set [2] is recorded as “inhibit”. For the same compound, in the data set on SIV infection (ARV + pirfenidone arm vs ARV only), the “proportion of the TZ occupied by collagen (composite, FIG. 12A)” value was “lower”. The “increase in the TZ area staining positive for CD4+ T cells upon initiation of ARV” value in the data set with SIV infection (animals treated with pirfenidone vs ARV only, FIG. 11D) was “greater increase”. Besides, the “rate of change in CD4+ area in TZ” value in the data set on SIV infection (co-administration of pirfenidone and ARV relative to ARV alone, FIG. 12B) is “improves”. Also, the “absolute number of naïve CD4 T cells of the TZ” value in the data set on SIV infection (group D (pirfenidone + ARV) relative to group C (ARV only), week 16 through week 24, FIG. 9) was “increase”. In addition, the “number of CD4 T cells in the TZ (TZ area staining positive for CD4+ T cells)” value in the data set on SIV infection (group D (pirfenidone + ARV) relative to group C (ARV only), week 16 through week 24, FIGS. 8, 11D) is given as “increased; also recorded: more of the TZ stains positive for CD4^+ T cells”. Also, the “percentage of CD4 T cells in GALT” value in the data set on SIV infection (group D (pirfenidone + ARV) relative to group C (ARV only), week 24, FIG. 10) is “increased”. In the data set with SIV infection (group D (pirfenidone from week -2 + ARV from week 8) relative to group C (ARV only), FIGS. 7, 11B), the “percentage area of the T cell zone with collagen” value was “significantly lower; also recorded: significant reduction”. The “tolerability, adverse effects or toxicity” value with SIV MAC239 (200 mg/kg orally BID (400 mg/kg/day)) was “well-tolerated without adverse effects or toxicity”. Moreover, in the data set with SIV MAC239 (pirfenidone 200 mg/kg BID orally vs animals not given pirfenidone, FIG. 3A), the “peripheral blood CD4 T cell count” value is “no significant change; also recorded: no obvious difference”. For the same compound, the “percent CD4 (CD4%) in peripheral blood” value with SIV MAC239 (pirfenidone 200 mg/kg BID orally vs animals not given pirfenidone, FIG. 3B) is reported as “no significant change; also recorded: no obvious difference”. The “plasma SIV RNA load (viral load)” value in the data set with SIV MAC239 (pirfenidone 200 mg/kg BID orally vs animals not given pirfenidone, FIG. 3C) is “no significant change; also recorded: no obvious difference”. The “fibrosis (percent area of T cell zone occupied by collagen) in lymph nodes” value in the data set with SIV MAC239 (pirfenidone 200 mg/kg BID vs animals not given pirfenidone, FIGS. 4, 5A, 11A) is on record as “decreased; also recorded: significant reduction; also recorded: less fibrosis; also recorded: significant difference”. The “size of the CD4+ T cell population (area staining positive for CD4) in lymph node T cell zone” value with SIV MAC239 (pirfenidone 200 mg/kg BID vs animals not given pirfenidone, FIGS. 4, 5B, 11C) is recorded as “increased; also recorded: more of the TZ stains positive for CD4^+ T cells; also recorded: higher CD4 numbers; also recorded: significant difference”. The “proportion of the TZ occupied by collagen (composite, FIG. 12A)” value in the data set on SIV MAC239 (pirfenidone only arm vs no treatment) is on record as “lower”. The “CD4 population in Peyer's Patches” value with SIV MAC239 (pirfenidone vs control animals, FIG. 4D) was “higher”.
